Reference: patent US20260217701A1, “SELECTIVE BET INHIBITORS AND USES THEREOF” (Tay Therapeutics Limited, priority 2022, published 2026)
“And” between values parts separate entries of the source, which are not always exact repeats. Identical values can stand only once. Like-named read-outs stand apart in the source and are kept apart here.

Assays:
[1] = system: idiopathic pulmonary fibrosis (bleomycin); test: Bleomycin IPF model: oxygen saturation (pulse oximetry); assay type: in vivo, C57BI/6J mice; conditions: for Oxygen saturation levels: Bleo mice
Experimental: Male C57BI/6J mice, aged 12 weeks with an approximate weight of 25-30 g were obtained from Jackson Laboratories (Bar Harbor, ME). Animals were acclimated for two weeks prior to study initiation, and were randomized into the experimental groups outlined in Table 32.
Intratracheal (IT) administration of Bleo or PBS control was conducted at the start of the study (Day 0). […] Animals were weighed on Day 0, and indexed boluses of PBS control (Group 1) or Bleo (Groups 2-6) were delivered by IT administration.
Following administration of Bleo, animals (n=10/group) were included in the study if they met the following guidelines on Day 7: (1) a predictable 5% loss in body weight, and (2) the presence of fibrotic pulmonary lesions, detected by micro-CT imaging. 10 animals from Group 1 additionally proceeded as controls. Animals that continued in the study on Day 7 received an oral gavage (OG) administration of PBS, Compound A (1 mg/kg, 3 mg/kg, 10 mg/kg), or Pirfenidone (300 mg/kg), as outlined in Table 31 in 25 μL boluses every other day (QOD), starting on Day 7. Compound A was formulated in 5% (v/v) DMSO/15% (v/v) PEG 400/80% (v/v) E-TPGS in purified water.
Body weights were obtained at Day 0 at the start of the study, and again at Day 7 to determine if an animal continued in the study. Body weight was measured daily from Day 7 until Day 21, and oxygen saturation was measured by a pulse oximetry (MouseOx) system QOD from Day 7 until study completion on Day 21, and results were plotted and analyzed by Kaplan-Meier plots.

[2] = Dog PK study #2 (Compound A IV, HPBCD formulation); assay type: in vivo, beagle dogs
Experimental: For Dog PK study #2, a solution of Compound A was prepared in HPBCD (20% solution w/v)/DMSO (99/1) with a concentration of 0.5 mg/mL (Table 2B). The Compound A solution was administered to animals intravenously (IV), and animals were monitored over a 24 h period (Table 3C). Body weight was recorded prior to dosing, and detailed clinical observations were made prior to dosing and throughout the study, as needed.
Blood samples (~0.3 mL) were collected according to a schedule (shown below) by venipuncture of peripheral veins except for the dosing vein, and EDTA-K2 was used as anticoagulant. Within 30 minutes of collection, the samples were centrifuged at approximately 2000 times g-force for 10 minutes at 4° C. to obtain blood plasma. The plasma samples were immediately divided into two aliquots (~75 μL each), transferred to a cryogenic vial, and stored in a freezer at −75+15° C. prior to analysis.
Blood samples were collected at 0.083, 0.25, 0.5, 1, 2, 4, 8, and 24 h following the initial dosing (0 h).
The concentration of Compound A in the blood plasma was determined through liquid chromatography-mass spectrometry (LC-MS). The experiments were conducted on a Shimadzu HPLC(DGU-20A5R; LC-30AD; SIL-30AC; Rack Changer II; CTO-30A; and CBM-20A) and AB API 5500 LC/MS/MS instrument with an Agilent Poroshell EC-C18 4 μm (50×2.1 mm) column. A gradient of 95% water (0.1% formic acid)/95% acetonitrile (0.1% formic acid) was used as the mobile phase. The sample injection volume was 4 μL, and the flow rate was 0.6 mL/min. The gathered data were used for pharmacokinetic calculations using T1/2, CO, AUClast, AUCinf, MRTinf, Cl, Vss, and Number of Points for Regression as parameters.
The desired serial concentrations of working solutions were achieved by diluting stock solution of analyte with 50% acetonitrile in water solution. 5 μL of working solutions (5, 10, 20, 50, 100, 500, 1000, 5000, 10000 ng/ml) were added to 50 µL of the blank Beagle Dogs plasma to achieve calibration standards of 0.5~1000 ng/ml (0.5, 1, 2, 5, 10, 50, 100, 500, 1000 ng/ml) in a total volume of 55 μL. Five quality control samples at 1 ng/ml, 2 ng/mL, 5 ng/ml, 50 ng/mL and 800 ng/mL for plasma were prepared independently of those used for the calibration curves. These QC samples were prepared on the day of analysis in the same way as calibration standards.
55 μL standards, 55 μL QC samples and 55 μL unknown samples (50 μL plasma with 5 μL blank solution) were added to 200 μL of acetonitrile containing IS mixture (verapamil) for precipitating protein respectively. Then the samples were vortexed for 30 s. After centrifugation at 4° C., 3900 rpm for 15 min, the supernatant was diluted 3 times with water. 4 μL of diluted supernatant was injected into the LC/MS/MS system for quantitative analysis.

[3] = IV 1 mg/kg, HPBCD formulation, individual animals, 1 mg/kg
[4] = IV 1 mg/kg, HPBCD formulation, mean
[5] = beagle, dog, plasma, iv, 1 mg/kg, IV 1 mg/kg, HPBCD formulation, individual animals, read-out: Plasma concentration
[6] = beagle, dog, plasma, iv, 1 mg/kg, IV 1 mg/kg, HPBCD formulation, mean, read-out: Average plasma concentration
[7] = beagle, dog, plasma, iv, 1 mg/kg, IV 1 mg/kg, HPBCD formulation, mean

SMILES: Cn1cc(-c2ccccc2)c(-c2cn(C)c(=O)c3[nH]c(-c4cnn(C(F)(F)F)c4)cc23)cc1=O [Compound A, 6-methyl-4-(1-methyl-2-oxo-5-phenyl-1,2-dihydropyridin-4-yl)-2-(1-(trifluoromethyl)-1H-pyrazol-4-yl)-1,6-dihydro-7H-pyrrolo[2,3-c]pyridin-7-one]
- Recovery in oxygen saturation relative to IPF control group (Bleo+Saline) ([1]; 3 mg/kg and 10 mg/kg): significant recovery in oxygen saturation levels
- Mean Oxygen Saturation ([1]; Bleo + Compound A (1 mg/kg) OG QOD from D7, Day 7): 80.6
- Mean Oxygen Saturation ([1]; Bleo + Compound A (1 mg/kg) OG QOD from D7, Day 9): 84.25
- Mean Oxygen Saturation ([1]; Bleo + Compound A (1 mg/kg) OG QOD from D7, Day 11): 87.17
- Mean Oxygen Saturation ([1]; Bleo + Compound A (1 mg/kg) OG QOD from D7, Day 13): 88.03
- Mean Oxygen Saturation ([1]; Bleo + Compound A (1 mg/kg) OG QOD from D7, Day 15): 88.58
- Mean Oxygen Saturation ([1]; Bleo + Compound A (1 mg/kg) OG QOD from D7, Day 17): 88.48
- Mean Oxygen Saturation ([1]; Bleo + Compound A (1 mg/kg) OG QOD from D7, Day 19): 89.87
- Mean Oxygen Saturation ([1]; Bleo + Compound A (1 mg/kg) OG QOD from D7, Day 21): 87.67
- Mean Oxygen Saturation ([1]; Bleo + Compound A (3 mg/kg) OG QOD from D7, Day 7): 82.08
- Mean Oxygen Saturation ([1]; Bleo + Compound A (3 mg/kg) OG QOD from D7, Day 9): 83.77
- Mean Oxygen Saturation ([1]; Bleo + Compound A (3 mg/kg) OG QOD from D7, Day 11): 85.05
- Mean Oxygen Saturation ([1]; Bleo + Compound A (3 mg/kg) OG QOD from D7, Day 13): 85.67
- Mean Oxygen Saturation ([1]; Bleo + Compound A (3 mg/kg) OG QOD from D7, Day 15): 85.97
- Mean Oxygen Saturation ([1]; Bleo + Compound A (3 mg/kg) OG QOD from D7, Day 17): 89.18
- Mean Oxygen Saturation ([1]; Bleo + Compound A (3 mg/kg) OG QOD from D7, Day 19): 89.6
- Mean Oxygen Saturation ([1]; Bleo + Compound A (3 mg/kg) OG QOD from D7, Day 21): 89.88
- Mean Oxygen Saturation ([1]; Bleo + Compound A (10 mg/kg) OG QOD from D7, Day 7): 82.75
- Mean Oxygen Saturation ([1]; Bleo + Compound A (10 mg/kg) OG QOD from D7, Day 9): 84.07
- Mean Oxygen Saturation ([1]; Bleo + Compound A (10 mg/kg) OG QOD from D7, Day 11): 86.87
- Mean Oxygen Saturation ([1]; Bleo + Compound A (10 mg/kg) OG QOD from D7, Day 13): 87.5
- Mean Oxygen Saturation ([1]; Bleo + Compound A (10 mg/kg) OG QOD from D7, Day 15): 88.87
- Mean Oxygen Saturation ([1]; Bleo + Compound A (10 mg/kg) OG QOD from D7, Day 17): 89.23
- Mean Oxygen Saturation ([1]; Bleo + Compound A (10 mg/kg) OG QOD from D7, Day 19): 92.22
- Mean Oxygen Saturation ([1]; Bleo + Compound A (10 mg/kg) OG QOD from D7, Day 21): 93.58
- Oxygen saturation levels ([1]; 3 mg/kg, Day 21): about 90%
- Oxygen saturation levels ([1]; 10 mg/kg, Day 21): about 93.6%
- Improvement of oxygen saturation versus pirfenidone ([1]; IPF model): superior to pirfenidone in improving oxygen saturation
- clinical observations, HPBCD vs propylene glycol formulation ([2]; IV): fewer clinical observations
- AUClast [2, 3]: 4409 ng·h/mL and 1577 ng·h/mL and 1732 ng·h/mL
- AUClast/D [2, 3]: 4409 (ng · h/mL)/(mg/kg) and 1577 (ng · h/mL)/(mg/kg) and 1732 (ng · h/mL)/(mg/kg)
- AUClnf [2, 3]: 4854 ng·h/mL and 1674 ng·h/mL and 2083 ng·h/mL
- AUC—%Extrap—obs [2, 3]: 9.17% and 5.83% and 16.8%
- C0 [2, 3]: 476 ng/mL and 410 ng/mL
- CI_obs [2, 3]: 3.43 mL/min/kg and 9.95 mL/min/kg and 8.00 mL/min/kg
- MRTlnf—obs [2, 3]: 9.30 h and 6.26 h and 11.8 h
- T1/2 [2, 3]: 6.45 h and 10.1 h
- Vss—obs [2, 3]: 1.91 L/kg and 3.74 L/kg and 5.67 L/kg
- AUClast/D [2, 4]: 2573 (ng · h/mL)/(mg/kg)
- AUC—%Extrap—obs [2, 4]: 10.6%
- CI_obs [2, 4]: 7.13 mL/min/kg
- MRTlnf—obs [2, 4]: 9.1 h
- concentration at 0.083 h [2, 5]: 479 ng/mL
- concentration at 0.083 h [2, 6]: 446 ng/mL
- concentration at 0.25 h [2, 5]: 540 ng/mL
- concentration at 0.25 h [2, 6]: 450 ng/mL
- concentration at 0.5 h [2, 5]: 405 ng/mL
- concentration at 0.5 h [2, 6]: 328 ng/mL
- concentration at 1 h [2, 5]: 331 ng/mL
- concentration at 1 h [2, 6]: 269 ng/mL
- concentration at 2 h [2, 5]: 323 ng/mL
- concentration at 2 h [2, 6]: 232 ng/mL
- concentration at 4 h ([2]; beagle, dog, plasma, iv, 1 mg/kg, IV 1 mg/kg, HPBCD formulation, 4 h, mean): 176 ng/mL
- concentration at 8 h ([2]; beagle, dog, plasma, iv, 1 mg/kg, IV 1 mg/kg, HPBCD formulation, 8 h, mean): 100 ng/mL
- concentration at 24 h ([2]; beagle, dog, plasma, iv, 1 mg/kg, IV 1 mg/kg, HPBCD formulation, 24 h, mean): 26 ng/mL
- half-life ([2]; beagle, dog, plasma, iv, 1 mg/kg, IV 1 mg/kg, HPBCD formulation, individual animals): 7.11 h
- C0 ([2]; beagle, dog, plasma, iv, 1 mg/kg, IV 1 mg/kg, HPBCD formulation, individual animals, read-out: C0): 479 ng/mL
- AUC [2, 7]: 2870 ng·h/mL
- AUC(0-t) [2, 7]: 2570 ng·h/mL
- half-life [2, 7]: 7.9 h
- C0 ([2]; beagle, dog, plasma, iv, 1 mg/kg, IV 1 mg/kg, HPBCD formulation, mean, read-out: C0): 455 ng/mL
- Vd ([2]; beagle, dog, plasma, iv, 1 mg/kg, IV 1 mg/kg, HPBCD formulation, mean, read-out: Vss—obs): 3.77 L/kg
